17 sequences from publication PMC7803423, “Identification of CTL Epitopes on Efflux Pumps of the ATP-Binding Cassette and the Major Facilitator Superfamily of Mycobacterium tuberculosis” (Journal of Immunology Research, 2021) can be followed below.

The target in test [1] is T1, peptide/HLA-A*0201 complex on T2A2 cells (Homo sapiens, UniProt P04439, D140Y/D185E/D98H/E176V/E277Q/G131W/G231S/I119V/I121R/I166T/I218V/L300P/L318F/N151K/N90K/P208A/P217A/Q86G/Q94H/R138H/R169H/T345S).
T1 construct: endogenous in cells; host or cells: T2A2 cells
Nature of the test: Peptide/HLA-A*0201 complex stability assay. Type of test: binding. The conditions noted are these: time for loss of 50% of peptide/HLA-A*0201 complexes stabilized at 0 h, 50 μg/mL peptide, 18 h, brefeldin A 10 μg/mL 1 h, then 0, 2, 4, 6 h at 37°C, flow cytometry. As for the experimental part: The peptide/MHC complex stabilization assays were performed similarly. T2A2 cells were incubated with 50 μg/mL peptides and 3 μg/mL β2-M for 18 h. Then, 10 μg/mL brefeldin A (203729, Sigma, USA) were added in medium for another 1 h, subsequently washed by serum-free IMDM medium and incubated at 37°C for 0, 2, 4, and 6 h. Finally, cells were washed twice, stained with HLA-A2-PE-Cyanine 7 monoclonal antibody, and analyzed by flow cytometer (FACS Calibur, BD Bioscience, USA). DC50 was defined as an estimate of the time required for the loss of 50% of the peptide/HLA-A^∗0201 complexes stabilized at time 0 h.

Another test concerns the target T2, HLA-A*0201 on T2A2 cells (Homo sapiens, UniProt P04439, D140Y/D185E/D98H/E176V/E277Q/G131W/G231S/I119V/I121R/I166T/I218V/L300P/L318F/N151K/N90K/P208A/P217A/Q86G/Q94H/R138H/R169H/T345S).
T2 construct: T2A2 cells (1 × 10^6 cells/mL) resuspended in serum-free IMDM medium were seeded in 24-well plates; endogenous in cells; host or cells: T2A2 cells
Nature of the test: T2A2 cell binding affinity assay. The note with it: 50 μg/mL peptide + 3 μg/mL β2-M; for FI (fluorescence index): FI = [MFI of the peptide − MFI of the background]/[MFI of the background], T2A2 cells, 18 h; for MFI: T2A2 cells 1 × 10^6 cells/mL, 37°C 18 h, HLA-A2 antibody BB7.2, flow cytometry, background MFI 131.

The test system of another test is IFN-γ. The experiment in a line: Serum IFN-γ ELISA after peptide immunization. Type of test: in vivo, HLA-A2.1/K^b transgenic mice. The note with it: serum day 11, n = 5.
In test [2] the test system is peptide-induced CD8+ T cells from HLA-A*02+ PPD+ / PPD− donors. Nature of the test: Intracellular cytokine IFN-γ staining (ICS) of peptide-induced CTLs in vitro. It counts as cell-based, human. The note with it: for CD8+ IFN-γ+ T cells, PPD+ donors compared with PBS-treated group: n = 3 donors; for CD8+ IFN-γ+ T cells, PPD+ donors compared with PPD− donors: n = 3 donors each, Student's t-test.

For test [3], the system named is CD8+ T cells of splenic lymphocytes. The experiment in a line: ICS assay of restimulated splenic lymphocytes from immunized mice. Type of test: in vivo, HLA-A2.1/K^b transgenic mice. The conditions noted are these: ICS on day 7 of restimulation, n = 5.
Test [4] relates to peptide-pulsed T2A2 cells. Nature of the test: LDH cytotoxicity assay of peptide-induced CTLs in vitro. Type of test: cell-based, human. The note with it: E : T ratio 50 : 1, CTLs from HLA-A*02+PPD+ donors, T2A2 cells pulsed with corresponding peptide, 4 h, n = 4.
Test [5] deals with peptide-loaded T2A2 cells. The experiment in a line: LDH lysis assay with CTLs from immunized mice. Type of test: in vivo, HLA-A2.1/K^b transgenic mice. The conditions noted are these: peptide-loaded T2A2 target cells, n = 5.
Test [6] relates to peptide-induced CTLs from HLA-A*02+PPD+ donors. The experiment in a line: IFN-γ ELISPOT of peptide-induced CTLs in vitro. Type of test: cell-based, human. The note with it: CTLs induced with peptide-loaded DCs from HLA-A*02+PPD+ donors, day 21; stimulators peptide-loaded T2A2 cells, 18 h.
Where [7] appears, read: CFA day -14 then peptide in IFA.

For “YLLGGTVVV [Rv1877-p71, predicted HLA-A2-restricted 9-mer peptide … from MTB efflux pump antigen Rv1877]”, in test [1], the DC50 is reported as above 2 h. In addition, on HLA-A*0201 on T2A2 cells, the “FI (fluorescence index)” value is reported as 2.17 and the MFI was 419.
In test [1], “ILIGETIKI [COX-2-p321, reference compound]” returned a DC50 above 4 h. Also, at HLA-A*0201 on T2A2 cells, the “FI (fluorescence index)” value amounted to 2.11 and the MFI worked out at 408.
In test [1], “RLGNVVVEV [Rv2477c-p316, predicted HLA-A2-restricted 9-mer peptide … from MTB efflux pump antigen Rv2477c]” registered a DC50 above 2 h. For the same sequence, at HLA-A*0201 on T2A2 cells, the “FI (fluorescence index)” value was 1.58 and the MFI was 348.
Regarding “LMMPQTVTV [Rv2994-p223, predicted HLA-A2-restricted 9-mer peptide … from MTB efflux pump antigen Rv2994]”, the DC50 in test [1] was below 2 h. On HLA-A*0201 on T2A2 cells, the “FI (fluorescence index)” value stood at 2.28 and the MFI is reported as 430.
With ALDGLDLTV [Rv1218c-p24], the “serum IFN-γ concentration (ELISA), CFA preimmunization” value with IFN-γ (CFA 200 μL s.c. day -14, then peptide 100 μg/mice + T helper epitope 140 μg/mice in IFA days 0, 5, 10) came out at 1817.0 pg/mL. The “serum IFN-γ concentration (ELISA), IFA” value in the test on IFN-γ (peptide 100 μg/mice + T helper epitope 140 μg/mice in IFA 1 : 1, s.c. base of tail, days 0, 5, 10) was found to be 363 pg/mL. Also, in test [2], the “CD8+ IFN-γ+ T cells, PPD+ donors compared with PBS-treated group” value was “more CD8^+ IFN-γ^+ T cells than the PBS-treated group” and the “CD8+ IFN-γ+ T cells, PPD+ donors compared with PPD− donors” value is “significantly more CD8^+ IFN-γ^+ T cells”. This sequence also displayed a DC50 in test [1] above 4 h. Further, the “CD8+ IFN-γ+ T cells compared with NS group, CFA preimmunization” value in test [3] (setting [7]) is listed as “produced more CD8^+ IFN-γ^+ T cells than the NS group”. For the same sequence, in test [3] (IFA immunization), the “CD8+ IFN-γ+ T cells compared with NS group, IFA” value is reported as “induced more CD8^+IFN-γ^+ T cells than the NS group”. On HLA-A*0201 on T2A2 cells, the “FI (fluorescence index)” value was 3.32 and the MFI is given as 569. Besides, in test [4], the lysis rate is 88.6%. Further, in test [5] (setting [7]), the “lysis rate, CFA preimmunization, E : T 40 : 1” value is 24.6% and the “lysis rate, CFA preimmunization, E : T 80 : 1” value came out at 41.2%. In test [5] (IFA immunization), the “lysis rate, IFA, E : T 80 : 1” value was 26.4%. Also, the “IFN-γ secretion of peptide-induced CTLs (ELISPOT)” value (shortened to “IFN-γ secretion”) in test [6] is given as “secreted IFN-γ most potently”.
“ALCEKVTII [Rv1218c-p200, predicted HLA-A2-restricted 9-mer peptide … from MTB efflux pump antigen Rv1218c]”: the DC50 in test [1] and in test [1] (listed as Rv1218c-P200) was above 4 h in each case. Besides, on HLA-A*0201 on T2A2 cells, the “FI (fluorescence index)” value is 1.75. Besides, at HLA-A*0201 on T2A2 cells, the MFI amounted to 366.
Take “RLTEELAWV [Rv2477c-p265, predicted HLA-A2-restricted 9-mer peptide … from MTB efflux pump antigen Rv2477c]”: on HLA-A*0201 on T2A2 cells, the “FI (fluorescence index)” value came to 1.36 and the MFI stood at 315.
On to “VLAADAVFV [Rv2459c-p469, predicted HLA-A2-restricted 9-mer peptide … from MTB efflux pump antigen Rv2459c]”, for which, in test [2], the “CD8+ IFN-γ+ T cells, PPD+ donors compared with PBS-treated group” value is on record as “more CD8^+ IFN-γ^+ T cells than the PBS-treated group” and the “CD8+ IFN-γ+ T cells, PPD+ donors compared with PPD− donors” value is “significantly more CD8^+ IFN-γ^+ T cells”. The DC50 in test [1] is on record as above 4 h. Besides, at HLA-A*0201 on T2A2 cells, the “FI (fluorescence index)” value stood at 2.36 and the MFI was found to be 440. Besides, in test [6], the “IFN-γ secretion” value is “secreted IFN-γ most potently”.
As to “LLDEPTSAL [Rv0933-p186, predicted HLA-A2-restricted 9-mer peptide … from MTB efflux pump antigen Rv0933]”, in test [1], the DC50 is listed as below 2 h. Further, on HLA-A*0201 on T2A2 cells, the “FI (fluorescence index)” value was determined as 2.52 and the MFI is on record as 465.
With “WMSIGVFSV [Rv1819c-p122, predicted HLA-A2-restricted 9-mer peptide … from MTB efflux pump antigen Rv1819c]”, on HLA-A*0201 on T2A2 cells, the “FI (fluorescence index)” value turned out to be 0.35 and the MFI is given as 177.
The sequence “GLDPLMENV [Rv1218c-p165, predicted HLA-A2-restricted 9-mer peptide … from MTB efflux pump antigen Rv1218c]” showed a DC50 in test [1] above 2 h. Moreover, at HLA-A*0201 on T2A2 cells, the “FI (fluorescence index)” value was 2.6 and the MFI came to 479.
Taken in the same sequence, the figures for “VLATGVTLV [Rv2209-p158, predicted HLA-A2-restricted 9-mer peptide … from MTB efflux pump antigen Rv2209]” were above 4 h, 2.54 and 462.
As to “TLFKTIVGL [Rv2477c-p362, predicted HLA-A2-restricted 9-mer peptide … from MTB efflux pump antigen Rv2477c]”, the DC50 in test [1] is listed as above 2 h. Further, at HLA-A*0201 on T2A2 cells, the “FI (fluorescence index)” value worked out at 1.72 and the MFI is reported as 367.
Regarding “LLDEPSSGL [Rv1218c-p158, predicted HLA-A2-restricted 9-mer peptide … from MTB efflux pump antigen Rv1218c]”, the “CD8+ IFN-γ+ T cells, PPD+ donors compared with PPD− donors” value in test [2] is recorded as “significantly more CD8^+ IFN-γ^+ T cells”. This sequence also showed a DC50 in test [1] above 4 h. Besides, on HLA-A*0201 on T2A2 cells, the “FI (fluorescence index)” value is reported as 2.35 and the MFI is 439. In addition, in test [6], the “IFN-γ secretion” value is “secreted IFN-γ most potently”.
The sequence “SLADRLTVI [Rv0933-p208, predicted HLA-A2-restricted 9-mer peptide … from MTB efflux pump antigen Rv0933]” returned a DC50 in test [1] below 2 h. For the same sequence, at HLA-A*0201 on T2A2 cells, the “FI (fluorescence index)” value came to 2.59 and the MFI was 479.
The like results for “SLVSQPPTL [Rv1218c-p280, predicted HLA-A2-restricted 9-mer peptide … from MTB efflux pump antigen Rv1218c]” were, in that order, below 2 h, 1.62 and 353.
For “LLLSKPDLL [Rv2477c-p173, predicted HLA-A2-restricted 9-mer peptide … from MTB efflux pump antigen Rv2477c]”, at HLA-A*0201 on T2A2 cells, the “FI (fluorescence index)” value is 1.15 and the MFI was 272.
